According to PubChem BioAssay (NCI):
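Test compounds were applied to cells in 96-well plates for 48 hours at 5 doses. TGI: concentration producing complete growth inhibition.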

Legend:
Assay in all cases: growth of human tumour cells (NCI), 48 h
SW-620 colon = tested on: SW-620 colon
786-0 renal = tested on: 786-0 renal
NCI-H226 lung = tested on: NCI-H226 lung
OVCAR-3 ovarian = tested on: OVCAR-3 ovarian
A549 NSCLC = tested on: A549 NSCLC
OVCAR-4 ovarian = tested on: OVCAR-4 ovarian
UACC-62 melanoma = tested on: UACC-62 melanoma
MALME-3M melanoma = tested on: MALME-3M melanoma
SK-MEL-2 melanoma = tested on: SK-MEL-2 melanoma
UACC-257 melanoma = tested on: UACC-257 melanoma
MDA-N = tested on: MDA-N
HCT-15 colon = tested on: HCT-15 colon
IGROV1 ovarian = tested on: IGROV1 ovarian
NCI-H23 lung = tested on: NCI-H23 lung
LOX IMVI melanoma = tested on: LOX IMVI melanoma
HCT-116 colon = tested on: HCT-116 colon
MOLT-4 leukemia = tested on: MOLT-4 leukemia
T-47D breast = tested on: T-47D breast
MDA-MB-231 breast = tested on: MDA-MB-231 breast
OVCAR-5 ovarian = tested on: OVCAR-5 ovarian
OVCAR-8 ovarian = tested on: OVCAR-8 ovarian
NCI-H460 lung = tested on: NCI-H460 lung
CCRF-CEM leukemia = tested on: CCRF-CEM leukemia
ACHN renal = tested on: ACHN renal
SK-MEL-28 melanoma = tested on: SK-MEL-28 melanoma
CAKI-1 renal = tested on: CAKI-1 renal
M14 melanoma = tested on: M14 melanoma
SNB-19 CNS = tested on: SNB-19 CNS
TK-10 renal = tested on: TK-10 renal
HOP-92 NSCLC = tested on: HOP-92 NSCLC
SF-295 CNS = tested on: SF-295 CNS
NCI/ADR-RES ovarian = tested on: NCI/ADR-RES ovarian
RXF 393 renal = tested on: RXF 393 renal
DU-145 prostate = tested on: DU-145 prostate
KM12 colon = tested on: KM12 colon
HCC-2998 colon = tested on: HCC-2998 colon
MDA-MB-435 = tested on: MDA-MB-435
SN12C renal = tested on: SN12C renal
HS 578T breast = tested on: HS 578T breast
EKVX NSCLC = tested on: EKVX NSCLC
U251 CNS = tested on: U251 CNS
SNB-75 CNS = tested on: SNB-75 CNS
UO-31 renal = tested on: UO-31 renal
K-562 leukemia = tested on: K-562 leukemia
HT29 colon = tested on: HT29 colon
SK-MEL-5 melanoma = tested on: SK-MEL-5 melanoma
NCI-H522 lung = tested on: NCI-H522 lung
HOP-62 NSCLC = tested on: HOP-62 NSCLC
BT-549 breast = tested on: BT-549 breast
PC-3 prostate = tested on: PC-3 prostate
SF-268 CNS = tested on: SF-268 CNS
A498 renal = tested on: A498 renal
SR leukemia = tested on: SR leukemia
COLO 205 colon = tested on: COLO 205 colon
HL-60(TB) leukemia = tested on: HL-60(TB) leukemia
SK-OV-3 ovarian = tested on: SK-OV-3 ovarian
SF-539 CNS = tested on: SF-539 CNS

In the case of Cc1ccc(S(=O)(=O)OC2C(C3COC(C)(C)O3)OC3OC(C)(C)OC32)cc1 (configuration not stated), the TGI (SW-620 colon) is reported as > 100 µM, the TGI (786-0 renal) is reported as > 100 µM and the TGI (NCI-H226 lung) is reported as > 100 µM. The TGI (OVCAR-3 ovarian) was > 100 µM, the TGI (A549 NSCLC) was > 100 µM and the TGI (OVCAR-4 ovarian) was > 100 µM. For the same compound, the TGI (UACC-62 melanoma) was > 100 µM, the TGI (MALME-3M melanoma) was > 100 µM and the TGI (SK-MEL-2 melanoma) was > 100 µM. For the same compound, the TGI (UACC-257 melanoma) was > 100 µM, the TGI (MDA-N) was > 100 µM and the TGI (HCT-15 colon) was > 100 µM. For the same compound, the TGI (IGROV1 ovarian) was > 100 µM, the TGI (NCI-H23 lung) was > 100 µM and the TGI (LOX IMVI melanoma) was > 100 µM. For the same compound, the TGI (HCT-116 colon) was > 100 µM, the TGI (MOLT-4 leukemia) was > 100 µM and the TGI (T-47D breast) was > 100 µM. The TGI (MDA-MB-231 breast) was > 100 µM, the TGI (OVCAR-5 ovarian) was > 100 µM and the TGI (OVCAR-8 ovarian) was > 100 µM. For the same compound, the TGI (NCI-H460 lung) was > 100 µM, the TGI (CCRF-CEM leukemia) was > 100 µM and the TGI (ACHN renal) was > 100 µM. The TGI (SK-MEL-28 melanoma) was > 100 µM, the TGI (CAKI-1 renal) was > 100 µM and the TGI (M14 melanoma) was > 100 µM. The TGI (SNB-19 CNS) was > 100 µM, the TGI (TK-10 renal) was > 100 µM and the TGI (HOP-92 NSCLC) was > 100 µM. The TGI (SF-295 CNS) was > 100 µM, the TGI (NCI/ADR-RES ovarian) was > 100 µM and the TGI (RXF 393 renal) was > 100 µM. For the same compound, the TGI (DU-145 prostate) was > 100 µM, the TGI (KM12 colon) was > 100 µM and the TGI (HCC-2998 colon) was > 100 µM. For the same compound, the TGI (MDA-MB-435) was > 100 µM, the TGI (SN12C renal) was > 100 µM and the TGI (HS 578T breast) was > 100 µM. The TGI (EKVX NSCLC) was > 100 µM, the TGI (U251 CNS) was > 100 µM and the TGI (SNB-75 CNS) was > 100 µM. The TGI (UO-31 renal) was > 100 µM, the TGI (K-562 leukemia) was > 100 µM and the TGI (HT29 colon) was > 100 µM. The TGI (SK-MEL-5 melanoma) was > 100 µM, the TGI (NCI-H522 lung) was > 100 µM and the TGI (HOP-62 NSCLC) was > 100 µM. The TGI (BT-549 breast) was > 100 µM, the TGI (PC-3 prostate) was > 100 µM and the TGI (SF-268 CNS) was > 100 µM. The TGI (A498 renal) was > 100 µM and the TGI (SR leukemia) was > 100 µM.

With CCOC(=O)[C@@]12CCC(C1=O)[C@](C)(O)C[C@@H]2c1ccccc1 the TGI (SW-620 colon) was > 100 µM, the TGI (786-0 renal) was 68.8 µM and the TGI (NCI-H226 lung) was > 100 µM. For the same compound, the TGI (OVCAR-3 ovarian) was 84 µM, the TGI (COLO 205 colon) was > 100 µM and the TGI (A549 NSCLC) was > 100 µM. For the same compound, the TGI (OVCAR-4 ovarian) was > 100 µM, the TGI (UACC-62 melanoma) was > 100 µM and the TGI (MALME-3M melanoma) was > 100 µM. The TGI (SK-MEL-2 melanoma) was > 100 µM, the TGI (UACC-257 melanoma) was > 100 µM and the TGI (MDA-N) was 16.8 µM. The TGI (HL-60(TB) leukemia) was > 100 µM, the TGI (HCT-15 colon) was > 100 µM and the TGI (IGROV1 ovarian) was > 100 µM. For the same compound, the TGI (SK-OV-3 ovarian) was 96.9 µM, the TGI (NCI-H23 lung) was > 100 µM and the TGI (LOX IMVI melanoma) was > 100 µM. The TGI (HCT-116 colon) was > 100 µM, the TGI (MOLT-4 leukemia) was > 100 µM and the TGI (T-47D breast) was > 100 µM. For the same compound, the TGI (MDA-MB-231 breast) was > 100 µM, the TGI (OVCAR-5 ovarian) was > 100 µM and the TGI (OVCAR-8 ovarian) was > 100 µM. The TGI (NCI-H460 lung) was > 100 µM, the TGI (CCRF-CEM leukemia) was > 100 µM and the TGI (ACHN renal) was > 100 µM. The TGI (SK-MEL-28 melanoma) was > 100 µM, the TGI (CAKI-1 renal) was > 100 µM and the TGI (M14 melanoma) was > 100 µM. The TGI (SNB-19 CNS) was > 100 µM, the TGI (TK-10 renal) was > 100 µM and the TGI (HOP-92 NSCLC) was > 100 µM. For the same compound, the TGI (SF-539 CNS) was > 100 µM, the TGI (SF-295 CNS) was > 100 µM and the TGI (NCI/ADR-RES ovarian) was > 100 µM. For the same compound, the TGI (RXF 393 renal) was > 100 µM, the TGI (DU-145 prostate) was > 100 µM and the TGI (KM12 colon) was > 100 µM. For the same compound, the TGI (MDA-MB-435) was 38.4 µM, the TGI (SN12C renal) was 72.3 µM and the TGI (HS 578T breast) was 61.7 µM. For the same compound, the TGI (EKVX NSCLC) was > 100 µM, the TGI (U251 CNS) was > 100 µM and the TGI (SNB-75 CNS) was > 100 µM. For the same compound, the TGI (UO-31 renal) was > 100 µM, the TGI (K-562 leukemia) was > 100 µM and the TGI (HT29 colon) was 73.2 µM. The TGI (SK-MEL-5 melanoma) was > 100 µM, the TGI (NCI-H522 lung) was 52.1 µM and the TGI (HOP-62 NSCLC) was > 100 µM. The TGI (BT-549 breast) was > 100 µM, the TGI (PC-3 prostate) was > 100 µM and the TGI (SF-268 CNS) was > 100 µM.
